molecular target: Gastrin/cholecystokinin type B receptor (Cavia porcellus); experiment: Tested for inhibition of [3H]pCCK-8 specific binding to cholecystokinin type B receptor in guinea pig brain cortex

Row | Ki [µM] | SMILES
1 | 0.134 | CC(Cc1cccc2ccccc12)(NC(=O)OC1[C@H]2C[C@@H]3C[C@@H](C[C@H]1C3)C2)C(=O)N(CCc1ccccc1)CC(=O)O (stereo partly drawn) [{[2-(Adamantan-2-yloxycarbonylamino)-2-methyl-3-naphthalen-1-yl-propionyl]-phenethyl-amino}-acetic acid]
2 | 0.037 | CC(Cc1c[nH]c2ccccc12)(NC(=O)OC1[C@H]2C[C@@H]3C[C@@H](C[C@H]1C3)C2)C(=O)N(CCc1ccc(Cl)cc1Cl)CC(=O)O (stereo partly drawn) [{[2-(Adamantan-2-yloxycarbonylamino)-3-(1H-indol-3-yl)-2-methyl-propionyl]-[2-(2,4-dichloro-phenyl)-ethyl]-amino}-acetic acid]
3 | 0.543 | CCOC(=O)CN(CCc1ccccc1)C(=O)C(C)(Cc1c[nH]c2ccccc12)NC(=O)OC1[C@H]2C[C@@H]3C[C@@H](C[C@H]1C3)C2 (stereo partly drawn) [{[2-(Adamantan-2-yloxycarbonylamino)-3-(1H-indol-3-yl)-2-methyl-propionyl]-phenethyl-amino}-acetic acid ethyl ester]

The next lines start with the compound.

Row | SMILES | Ki [µM]
4 | CC(Cc1c[nH]c2ccccc12)(C(=O)OC1[C@H]2C[C@@H]3C[C@@H](C[C@H]1C3)C2)C(=O)N(CCc1ccc(Cl)cc1Cl)CC(=O)O (stereo partly drawn) [N-Carboxymethyl-N-[2-(2,4-dichloro-phenyl)-ethyl]-2-(1H-indol-3-ylmethyl)-2-methyl-malonamic acid adamantan-2-yl ester] | 0.012
5 | CC(Cc1c[nH]c2ccccc12)(NC(=O)OC1[C@H]2C[C@@H]3C[C@@H](C[C@H]1C3)C2)C(=O)NCc1ccccc1 (stereo partly drawn) [[1-Benzylcarbamoyl-2-(1H-indol-3-yl)-1-methyl-ethyl]-carbamic acid adamantan-2-yl ester] | 0.231
6 | CC(Cc1c[nH]c2ccccc12)(NC(=O)OC1[C@H]2C[C@@H]3C[C@@H](C[C@H]1C3)C2)C(=O)NCCc1ccc(Cl)cc1Cl (stereo partly drawn) [[1-[2-(2,4-Dichloro-phenyl)-ethylcarbamoyl]-2-(1H-indol-3-yl)-1-methyl-ethyl]-carbamic acid adamantan-2-yl ester] | 0.027
7 | CC(Cc1c[nH]c2ccccc12)(NC(=O)OC1[C@H]2C[C@@H]3C[C@@H](C[C@H]1C3)C2)C(=O)NCCc1ccc(Br)cc1 (stereo partly drawn) [[1-[2-(4-Bromo-phenyl)-ethylcarbamoyl]-2-(1H-indol-3-yl)-1-methyl-ethyl]-carbamic acid adamantan-2-yl ester] | 0.051
8 | CC(Cc1c[nH]c2ccccc12)(NC(=O)OC1[C@H]2C[C@@H]3C[C@@H](C[C@H]1C3)C2)C(=O)Nc1ccc2ccccc2c1 (stereo partly drawn) [[2-(1H-Indol-3-yl)-1-methyl-1-(naphthalen-2-ylcarbamoyl)-ethyl]-carbamic acid adamantan-2-yl ester] | 0.402
9 | CC(Cc1c[nH]c2ccccc12)(NC(=O)OC1[C@H]2C[C@@H]3C[C@@H](C[C@H]1C3)C2)C(=O)NCC(=O)O (stereo partly drawn) [[2-(Adamantan-2-yloxycarbonylamino)-3-(1H-indol-3-yl)-2-methyl-propionylamino]-acetic acid] | 0.986
10 | COc1ccc(CCNC(=O)C(C)(Cc2c[nH]c3ccccc23)NC(=O)OC2[C@H]3C[C@@H]4C[C@@H](C[C@H]2C4)C3)cc1 (stereo partly drawn) [{2-(1H-Indol-3-yl)-1-[2-(4-methoxy-phenyl)-ethylcarbamoyl]-1-methyl-ethyl}-carbamic acid adamantan-2-yl ester] | 0.115
11 | CC(Cc1c[nH]c2ccccc12)(NC(=O)OC1[C@H]2C[C@@H]3C[C@@H](C[C@H]1C3)C2)C(=O)NCCc1ccc([N+](=O)[O-])cc1 (stereo partly drawn) [{2-(1H-Indol-3-yl)-1-methyl-1-[2-(4-nitro-phenyl)-ethylcarbamoyl]-ethyl}-carbamic acid adamantan-2-yl ester] | 0.079

molecular target: Gastrin/cholecystokinin type B receptor (Cavia porcellus); experiment: as above; remark: another data set of the same source

Row | Ki [µM] | SMILES
12 | 0.089 | CC(Cc1c[nH]c2ccccc12)(NC(=O)OC1[C@H]2C[C@@H]3C[C@@H](C[C@H]1C3)C2)C(=O)NCCc1cccc2ccccc12 (stereo partly drawn) [[2-(1H-Indol-3-yl)-1-methyl-1-(2-naphthalen-1-yl-ethylcarbamoyl)-ethyl]-carbamic acid adamantan-2-yl ester]

molecular target: Cholecystokinin receptor type A (Rattus norvegicus) (UniProt P30551); experiment: Tested for binding affinity towards cholecystokinin type A receptor in rat pancreas by displacement of [3H]pCCK-8 radioligand

Row | Ki [µM] | SMILES
13 | 3.01 | CC(Cc1ccc2ccccc2c1)(NC(=O)OC1[C@H]2C[C@@H]3C[C@@H](C[C@H]1C3)C2)C(=O)N(CCc1ccccc1)CC(=O)O (stereo partly drawn) [{[2-(Adamantan-2-yloxycarbonylamino)-2-methyl-3-naphthalen-2-yl-propionyl]-phenethyl-amino}-acetic acid]

Source: BindingDB's records for doi:10.1021/jm00072a005 (University of Paris, 1993)
